Data published in publication PMC5218480 (PLoS ONE, 2017).

Tested on: MV-4-11 cells
Assay: Gene expression microarray analysis (Affymetrix PrimeView) and GSEA
Assay type: cell-based, human
Set-up: RFU PODN (11730768_x_at) / Fold change /veh PODN (11730768_x_at) / RFU LINC00158 (11744669_a_at) / Fold change /veh LINC00158 (11744669_a_at) / RFU DUSP10 (11751237_a_at) / Fold change /veh DUSP10 (11751237_a_at) / RFU ID3 (11757404_x_at) / Fold change /veh ID3 (11757404_x_at) / RFU PLEKHG5 (11737974_s_at) / Fold change /veh PLEKHG5 (11737974_s_at) / RFU LRRC4B (11730491_at) / Fold change /veh LRRC4B (11730491_at) / RFU GIMAP4 (11747438_a_at) / Fold change /veh GIMAP4 (11747438_a_at) / RFU KRT8 (11758183_x_at) / Fold change /veh KRT8 (11758183_x_at) / RFU CNN1 (11734310_a_at) / Fold change /veh CNN1 (11734310_a_at) / RFU VPS37D (11726825_at) / Fold change /veh VPS37D (11726825_at) / RFU C10orf10 (11716522_x_at) / Fold change /veh C10orf10 (11716522_x_at) / RFU KIR2DL2 /// KIR2DL4 /// KIR2DL5A /// KIR2DL5B /// KIR2DS1 /// KIR2DS2 /// KIR2DS3 /// KIR2DS4 /// KIR3DL3 /// KIR3DL3 /// KIR3DS1 (11738374_at) / Fold change /veh KIR2DL2 /// KIR2DL4 /// KIR2DL5A /// KIR2DL5B /// KIR2DS1 /// KIR2DS2 /// KIR2DS3 /// KIR2DS4 /// KIR3DL3 /// KIR3DL3 /// KIR3DS1 (11738374_at) / RFU C1QL1 (11718748_at) / Fold change /veh C1QL1 (11718748_at) / RFU TMPRSS4 (11747572_a_at) / Fold change /veh TMPRSS4 (11747572_a_at) / RFU HAMP (11756126_x_at) / Fold change /veh HAMP (11756126_x_at) / RFU RNFT2 (11725882_a_at) / Fold change /veh RNFT2 (11725882_a_at) / RFU NR4A2 (11747474_a_at) / Fold change /veh NR4A2 (11747474_a_at) / RFU ABCC12 (11746883_a_at) / Fold change /veh ABCC12 (11746883_a_at) / RFU TMEM136 (11760407_x_at) / Fold change /veh TMEM136 (11760407_x_at) / RFU CLDN22 /// WWC2 (11732394_at) / Fold change /veh CLDN22 /// WWC2 (11732394_at) / RFU HLA-DPB1 (11760878_x_at) / Fold change /veh HLA-DPB1 (11760878_x_at) / RFU SPINT1 (11716480_a_at) / Fold change /veh SPINT1 (11716480_a_at) / RFU GAP43 (11754022_s_at) / Fold change /veh GAP43 (11754022_s_at) / RFU A4GNT (11735810_at) / Fold change /veh A4GNT (11735810_at) / RFU PRB3 (11715151_x_at) / Fold change /veh PRB3 (11715151_x_at) / RFU TUBB4B (11761932_at) / Fold change /veh TUBB4B (11761932_at) / RFU CAPN14 (11732068_a_at) / Fold change /veh CAPN14 (11732068_a_at) / RFU TMCC2 (11721928_a_at) / Fold change /veh TMCC2 (11721928_a_at) / RFU IRGQ (11745062_a_at) / Fold change /veh IRGQ (11745062_a_at) / RFU FAM174B (11720279_a_at) / Fold change /veh FAM174B (11720279_a_at) / RFU TMPRSS4 (11748680_a_at) / Fold change /veh TMPRSS4 (11748680_a_at) / RFU FAM212B (11763350_a_at) / Fold change /veh FAM212B (11763350_a_at) / RFU PLEKHG5 (11743358_a_at) / Fold change /veh PLEKHG5 (11743358_a_at) / RFU ZSCAN30 (11745921_a_at) / Fold change /veh ZSCAN30 (11745921_a_at) / RFU CMKLR1 (11741424_a_at) / Fold change /veh CMKLR1 (11741424_a_at) / RFU LOC101060620 /// MAPK8IP1 (11723275_at) / Fold change /veh LOC101060620 /// MAPK8IP1 (11723275_at) / RFU SPTSSB (11747773_x_at) / Fold change /veh SPTSSB (11747773_x_at) / RFU PRSS12 (11739890_at) / Fold change /veh PRSS12 (11739890_at) / RFU BIN1 (11741810_x_at) / Fold change /veh BIN1 (11741810_x_at) / RFU WNT11 (11732464_a_at) / Fold change /veh WNT11 (11732464_a_at) / RFU C10orf10 (11716521_a_at) / Fold change /veh C10orf10 (11716521_a_at) / RFU C5orf56 (11738089_at) / Fold change /veh C5orf56 (11738089_at) / RFU CYB561 (11721691_x_at) / Fold change /veh CYB561 (11721691_x_at) / RFU ANKRD19P (11752326_a_at) / Fold change /veh ANKRD19P (11752326_a_at) / RFU OR2T12 /// OR2T33 /// OR2T8 (11738714_s_at) / Fold change /veh OR2T12 /// OR2T33 /// OR2T8 (11738714_s_at) / RFU VCAN (11748164_a_at) / Fold change /veh VCAN (11748164_a_at) / RFU JSRP1 (11732532_at) / Fold change /veh JSRP1 (11732532_at) / RFU KRTAP10-11 (11738290_x_at) / Fold change /veh KRTAP10-11 (11738290_x_at) / RFU MYO3A (11730013_a_at) / Fold change /veh MYO3A (11730013_a_at) / RFU EBF3 (11725865_a_at) / Fold change /veh EBF3 (11725865_a_at) / RFU CAMK2N1 (11719241_x_at) / Fold change /veh CAMK2N1 (11719241_x_at) / RFU C5orf56 (11738088_a_at) / Fold change /veh C5orf56 (11738088_a_at) / RFU OLFML3 (11715873_a_at) / Fold change /veh OLFML3 (11715873_a_at) / RFU LOC100653217 /// NTM (11731650_a_at) / Fold change /veh LOC100653217 /// NTM (11731650_a_at) / RFU MAPK11 (11762145_a_at) / Fold change /veh MAPK11 (11762145_a_at) / RFU FIZ1 (11724087_x_at) / Fold change /veh FIZ1 (11724087_x_at) / RFU OASL (11726364_x_at) / Fold change /veh OASL (11726364_x_at) / RFU SOX15 (11748057_x_at) / Fold change /veh SOX15 (11748057_x_at) / RFU CD79A (11719716_a_at) / Fold change /veh CD79A (11719716_a_at) / RFU HIST1H1D (11736915_at) / Fold change /veh HIST1H1D (11736915_at) / RFU CASKIN2 (11723855_a_at) / Fold change /veh CASKIN2 (11723855_a_at) / RFU LOC730098 (11760151_x_at) / Fold change /veh LOC730098 (11760151_x_at) / RFU OR4N2 (11742367_at) / Fold change /veh OR4N2 (11742367_at) / RFU PRRT2 (11749266_a_at) / Fold change /veh PRRT2 (11749266_a_at) / RFU SNX32 (11753110_a_at) / Fold change /veh SNX32 (11753110_a_at) / RFU CDHR5 (11726645_a_at) / Fold change /veh CDHR5 (11726645_a_at) / RFU RCAN1 (11760418_a_at) / Fold change /veh RCAN1 (11760418_a_at) / RFU FAM167A (11723789_a_at) / Fold change /veh FAM167A (11723789_a_at) / RFU FAM26E (11764081_at) / Fold change /veh FAM26E (11764081_at) / RFU ISYNA1 (11749810_s_at) / Fold change /veh ISYNA1 (11749810_s_at) / RFU ACY1 (11761880_at) / Fold change /veh ACY1 (11761880_at) / RFU 11764098_at / Fold change /veh 11764098_at / RFU SAMD14 (11745864_x_at) / Fold change /veh SAMD14 (11745864_x_at) / RFU NPB (11741838_a_at) / Fold change /veh NPB (11741838_a_at) / RFU TMPRSS6 (11731388_a_at) / Fold change /veh TMPRSS6 (11731388_a_at) / RFU KRTAP10-2 (11738614_at) / Fold change /veh KRTAP10-2 (11738614_at) / RFU ARHGAP8 /// PRR5-ARHGAP8 (11727945_x_at) / Fold change /veh ARHGAP8 /// PRR5-ARHGAP8 (11727945_x_at) / RFU KRTAP5-7 /// NADSYN1 (11734609_at) / Fold change /veh KRTAP5-7 /// NADSYN1 (11734609_at) / RFU RASL12 (11751679_a_at) / Fold change /veh RASL12 (11751679_a_at) / RFU CDKN2B (11736163_a_at) / Fold change /veh CDKN2B (11736163_a_at) / RFU PRF1 (11729649_at) / Fold change /veh PRF1 (11729649_at) / RFU, ZNF638 /// ZNF638-IT1 / Fold change vs veh, ZNF638 /// ZNF638-IT1 / RFU, PANK3 / Fold change vs veh, PANK3 / RFU, SH3YL1 / Fold change vs veh, SH3YL1 / RFU, ZEB2 / Fold change vs veh, ZEB2 / RFU, NRIP1 / Fold change vs veh, NRIP1 / RFU, PTTG1IP / Fold change vs veh, PTTG1IP / RFU, CAPN2 / Fold change vs veh, CAPN2 / RFU, MED14 / Fold change vs veh, MED14 / RFU, SNORA58 / Fold change vs veh, SNORA58 / RFU, C1orf63 / Fold change vs veh, C1orf63 / RFU, LRRFIP1 / Fold change vs veh, LRRFIP1 / RFU, NDUFAF7 / Fold change vs veh, NDUFAF7 / RFU, SLC12A2 / Fold change vs veh, SLC12A2 / RFU, IBTK / Fold change vs veh, IBTK / RFU, ESF1 / Fold change vs veh, ESF1 / Fold change vs veh, TMEM50B / RFU, TAOK1 / Fold change vs veh, TAOK1 / RFU, ACBD3 / Fold change vs veh, ACBD3 / RFU, TMA16 / Fold change vs veh, TMA16 / RFU, RWDD3 / Fold change vs veh, RWDD3 / RFU, BCAT1 / Fold change vs veh, BCAT1 / RFU, EDEM3 / Fold change vs veh, EDEM3 / RFU, TMEM33 / Fold change vs veh, TMEM33 / RFU, WDR75 / Fold change vs veh, WDR75 / RFU, AHCTF1 / Fold change vs veh, AHCTF1 / RFU, TFRC / Fold change vs veh, TFRC / RFU, ZDHHC17 / Fold change vs veh, ZDHHC17 / RFU, NOM1 / Fold change vs veh, NOM1 / RFU, ARL8B / Fold change vs veh, ARL8B / RFU, ZBTB11 / Fold change vs veh, ZBTB11 / RFU, TAMM41 / Fold change vs veh, TAMM41 / RFU, KIAA1704 /// LOC100996395 / Fold change vs veh, KIAA1704 /// LOC100996395 / RFU, ING1 / Fold change vs veh, ING1 / RFU, TRMT61B / Fold change vs veh, TRMT61B / RFU, FUBP3 / Fold change vs veh, FUBP3 / RFU, TP53 / Fold change vs veh, TP53 / RFU, TNKS2 / Fold change vs veh, TNKS2 / RFU, ZFP14 / Fold change vs veh, ZFP14 / RFU, ACTR2 / Fold change vs veh, ACTR2 / RFU, PPP3R1 / Fold change vs veh, PPP3R1 / RFU, PIK3R1 / Fold change vs veh, PIK3R1 / RFU, HNRNPA1 / Fold change vs veh, HNRNPA1 / RFU, RNF170 / Fold change vs veh, RNF170 / RFU, ZNF28 / Fold change vs veh, ZNF28 / RFU, RNGTT / Fold change vs veh, RNGTT / RFU, OGT / Fold change vs veh, OGT / RFU, BRD1 / Fold change vs veh, BRD1 / RFU, MARS / Fold change vs veh, MARS / RFU, ZNF655 / Fold change vs veh, ZNF655 / RFU, FAHD1 / Fold change vs veh, FAHD1 / RFU, BDP1 / Fold change vs veh, BDP1 / RFU, LRRCC1 / Fold change vs veh, LRRCC1 / RFU, ARID1A / Fold change vs veh, ARID1A / RFU, ZNF146 / Fold change vs veh, ZNF146 / RFU, ZNF330 / Fold change vs veh, ZNF330 / RFU, GPN3 / Fold change vs veh, GPN3 / RFU, C9orf123 / Fold change vs veh, C9orf123 / RFU, N4BP2L2 / Fold change vs veh, N4BP2L2 / RFU, ARFIP1 / Fold change vs veh, ARFIP1 / RFU, FAM179B / Fold change vs veh, FAM179B / RFU, BCL10 / Fold change vs veh, BCL10 / RFU, UHRF1BP1L / Fold change vs veh, UHRF1BP1L / RFU, BET1 / Fold change vs veh, BET1 / RFU, CNOT2 / Fold change vs veh, CNOT2 / RFU, ZNF268 / Fold change vs veh, ZNF268 / Fold change vs veh, ZNF507 / RFU, DGCR2 / Fold change vs veh, DGCR2 / RFU, WDSUB1 / Fold change vs veh, WDSUB1 / Fold change vs veh, HSP90B1 /// MIR3652 / RFU, ADSS / Fold change vs veh, ADSS / RFU, GK / Fold change vs veh, GK / RFU, ZNF148 / Fold change vs veh, ZNF148 / RFU, TAF9 / Fold change vs veh, TAF9 / RFU, SLC1A5 / Fold change vs veh, SLC1A5 / RFU, SLMO2 / Fold change vs veh, SLMO2 / RFU, ABCC4 / Fold change vs veh, ABCC4 / RFU, LOC101060439 /// RAP1B / Fold change vs veh, LOC101060439 /// RAP1B / RFU, RFX7 / Fold change vs veh, RFX7 / RFU, GTPBP10 / Fold change vs veh, GTPBP10 / RFU, CNEP1R1 / Fold change vs veh, CNEP1R1 / RFU, BIVM-ERCC5 /// ERCC5 / Fold change vs veh, BIVM-ERCC5 /// ERCC5 / RFU, ILF3 / Fold change vs veh, ILF3 / RFU 11762660_at / Fold change /veh 11762660_at / RFU VCAN (11757783_s_at) / Fold change /veh VCAN (11757783_s_at) / RFU DDX43 (11728927_at) / Fold change /veh DDX43 (11728927_at) / RFU KRT8 (11758188_x_at) / Fold change /veh KRT8 (11758188_x_at) / RFU NKD1 (11759106_at) / Fold change /veh NKD1 (11759106_at) / RFU SRD5A1 (11742802_a_at) / Fold change /veh SRD5A1 (11742802_a_at) / RFU TPSAB1 /// TPSB2 (11721975_s_at) / Fold change /veh TPSAB1 /// TPSB2 (11721975_s_at) / RFU GSTM3 (11746129_a_at) / Fold change /veh GSTM3 (11746129_a_at) / RFU IL23R (11737362_x_at) / Fold change /veh IL23R (11737362_x_at) / RFU TMEM51 (11727254_a_at) / Fold change /veh TMEM51 (11727254_a_at) / RFU PIWIL2 (11732686_x_at) / Fold change /veh PIWIL2 (11732686_x_at) / RFU ORM1 (11744905_x_at) / Fold change /veh ORM1 (11744905_x_at) / RFU CCDC152 (11743942_at) / Fold change /veh CCDC152 (11743942_at) / RFU ECM1 (11717891_a_at) / Fold change /veh ECM1 (11717891_a_at) / RFU IL23R (11748794_a_at) / Fold change /veh IL23R (11748794_a_at) / RFU TNFAIP8L3 (11732012_x_at) / Fold change /veh TNFAIP8L3 (11732012_x_at) / RFU MBOAT4 (11741988_at) / Fold change /veh MBOAT4 (11741988_at) / RFU 11764193_at / Fold change /veh 11764193_at / RFU TMEM53 (11763286_at) / Fold change /veh TMEM53 (11763286_at) / RFU MAGEB2 (11727129_at) / Fold change /veh MAGEB2 (11727129_at) / RFU TMEM200A (11744735_a_at) / Fold change /veh TMEM200A (11744735_a_at) / RFU CCDC152 (11751479_a_at) / Fold change /veh CCDC152 (11751479_a_at) / RFU FAM211A (11726209_a_at) / Fold change /veh FAM211A (11726209_a_at) / RFU RGS16 (11746705_a_at) / Fold change /veh RGS16 (11746705_a_at) / RFU VCAN (11755009_s_at) / Fold change /veh VCAN (11755009_s_at) / RFU RHOB (11743442_s_at) / Fold change /veh RHOB (11743442_s_at) / RFU RGS16 (11720943_a_at) / Fold change /veh RGS16 (11720943_a_at) / RFU RGS16 (11720944_at) / Fold change /veh RGS16 (11720944_at) / RFU, VPS4B / Fold change vs veh, VPS4B / RFU, CREB1 / Fold change vs veh, CREB1 / RFU, DNAJC13 / Fold change vs veh, DNAJC13 / RFU, GNAQ / Fold change vs veh, GNAQ / RFU, CDK5R1 / Fold change vs veh, CDK5R1 / RFU, ZRANB3 / Fold change vs veh, ZRANB3 / RFU, CUL4A / Fold change vs veh, CUL4A / RFU, CCNY / Fold change vs veh, CCNY / RFU, UFL1 / Fold change vs veh, UFL1 / RFU, COG3 / Fold change vs veh, COG3 / RFU, DIAPH2 / Fold change vs veh, DIAPH2 / RFU, SKA2 / Fold change vs veh, SKA2 / RFU, AFF3 / Fold change vs veh, AFF3 / RFU, LMF1 / Fold change vs veh, LMF1 / RFU, IPO11 / Fold change vs veh, IPO11 / RFU, DFFB / Fold change vs veh, DFFB / RFU, FOXP1 / Fold change vs veh, FOXP1 / RFU, CARD8 / Fold change vs veh, CARD8 / RFU, STRN3 / Fold change vs veh, STRN3 / RFU, ADK / Fold change vs veh, ADK / RFU, RASSF2 / Fold change vs veh, RASSF2 / RFU, WIPF1 / Fold change vs veh, WIPF1 / RFU, LARP1B / Fold change vs veh, LARP1B / RFU, RASA1 / Fold change vs veh, RASA1 / RFU, RB1 / Fold change vs veh, RB1 / RFU, PPFIA1 / Fold change vs veh, PPFIA1 / RFU, MAT2A / Fold change vs veh, MAT2A / RFU, CCT5 / Fold change vs veh, CCT5 / RFU, WDR92 / Fold change vs veh, WDR92 / RFU, CUX1 / Fold change vs veh, CUX1 / RFU, TTC7A / Fold change vs veh, TTC7A / RFU, TMEM135 / Fold change vs veh, TMEM135 / RFU, DEPTOR / Fold change vs veh, DEPTOR / RFU, CPM / Fold change vs veh, CPM / RFU, DNAJB6 / Fold change vs veh, DNAJB6 / RFU, CACNA2D3 / Fold change vs veh, CACNA2D3 / RFU, DTX4 / Fold change vs veh, DTX4 / RFU, TFCP2 / Fold change vs veh, TFCP2 / RFU, GMCL1 /// GMCL1P1 / Fold change vs veh, GMCL1 /// GMCL1P1 / RFU, AEBP2 / Fold change vs veh, AEBP2 / RFU, SNHG1 /// SNORD22 /// SNORD25 /// SNORD26 /// SNORD27 /// SNORD28 /// SNORD29 /// SNORD31 / Fold change vs veh, SNHG1 /// SNORD22 /// SNORD25 /// SNORD26 /// SNORD27 /// SNORD28 /// SNORD29 /// SNORD31 / Fold change (Aza/veh), C12orf56 (ProbeSet 11735607_a_at) / Fold change (ACY-1035/veh), C12orf56 (ProbeSet 11735607_a_at) / Fold change (Aza/veh), FGFR1OP (ProbeSet 11751329_s_at) / Fold change (ACY-1035/veh), FGFR1OP (ProbeSet 11751329_s_at) / Fold change (Aza/veh), VPS36 (ProbeSet 11739960_a_at) / Fold change (ACY-1035/veh), VPS36 (ProbeSet 11739960_a_at) / RFU SYPL1 (11715823_x_at) / Fold change /veh SYPL1 (11715823_x_at) / RFU IGFBP7 (11715501_s_at) / Fold change /veh IGFBP7 (11715501_s_at) / RFU REEP3 (11722064_at) / Fold change /veh REEP3 (11722064_at) / RFU IGLL1 (11728026_x_at) / Fold change /veh IGLL1 (11728026_x_at): dose or concentration left out as unconfirmed
Details: ProbeSet 11727958_a_at; LIST B

## Nc1ccc(-c2cccs2)cc1NC(=O)c1ccc2c(c1)cc(C1CC1)n2CCN1CCOCC1 [ACY-1035]
  Fold change vs veh, ING1: 1.02
